Measured values published in ChEMBL document CHEMBL1139112, “Solid-phase analogue synthesis of caspase-3 inhibitors via palladium-catalyzed amination of 3-bromopyrazinones” (Bioorg Med Chem Lett, 2007).

Columns and labels:
[1] = target: T1, Caspase-3 (Homo sapiens, UniProt P42574); assay: Inhibition of human recombinant caspase 3 in NT2 by whole cell assay
T1 sequence (P42574 whole entry): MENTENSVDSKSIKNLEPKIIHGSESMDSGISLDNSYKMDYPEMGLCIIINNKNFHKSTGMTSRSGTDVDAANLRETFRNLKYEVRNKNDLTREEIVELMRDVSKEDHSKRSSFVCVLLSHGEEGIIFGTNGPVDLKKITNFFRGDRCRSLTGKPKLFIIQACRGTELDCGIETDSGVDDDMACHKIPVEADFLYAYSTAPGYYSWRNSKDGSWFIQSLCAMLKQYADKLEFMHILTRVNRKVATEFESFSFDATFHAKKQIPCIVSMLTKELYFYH

[2] = target: Caspase-8 (Homo sapiens, UniProt Q14790); assay: Inhibition of human recombinant caspase 8
Sequence of Caspase-8 (Q14790 217-374 limits assumed): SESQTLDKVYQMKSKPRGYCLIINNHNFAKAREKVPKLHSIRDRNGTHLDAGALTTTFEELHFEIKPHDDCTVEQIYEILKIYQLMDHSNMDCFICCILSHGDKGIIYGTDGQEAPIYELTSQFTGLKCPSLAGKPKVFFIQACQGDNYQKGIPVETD
Sequence of Caspase-8 (Q14790 385-479 limits assumed): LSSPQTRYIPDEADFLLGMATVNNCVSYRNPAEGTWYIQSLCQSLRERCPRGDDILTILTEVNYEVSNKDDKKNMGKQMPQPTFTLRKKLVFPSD

[3] = target: T2, Caspase-7 (Homo sapiens, UniProt P55210); assay: Inhibition of human recombinant caspase 7
T2 sequence (P55210 whole entry): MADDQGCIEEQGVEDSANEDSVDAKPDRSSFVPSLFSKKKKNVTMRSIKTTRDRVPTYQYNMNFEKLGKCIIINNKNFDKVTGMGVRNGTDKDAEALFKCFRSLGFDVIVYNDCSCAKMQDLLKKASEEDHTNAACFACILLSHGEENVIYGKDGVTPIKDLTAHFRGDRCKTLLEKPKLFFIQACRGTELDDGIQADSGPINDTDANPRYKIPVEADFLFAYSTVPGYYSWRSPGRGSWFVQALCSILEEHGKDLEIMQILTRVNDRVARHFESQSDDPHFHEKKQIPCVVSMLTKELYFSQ

[4] = target: T1, Caspase-3; assay: Inhibition of human recombinant caspase 3
[5] = target: T3, Caspase-1 (Homo sapiens, UniProt P29466); assay: Inhibition of human recombinant caspase 1
T3 sequence (P29466 whole entry): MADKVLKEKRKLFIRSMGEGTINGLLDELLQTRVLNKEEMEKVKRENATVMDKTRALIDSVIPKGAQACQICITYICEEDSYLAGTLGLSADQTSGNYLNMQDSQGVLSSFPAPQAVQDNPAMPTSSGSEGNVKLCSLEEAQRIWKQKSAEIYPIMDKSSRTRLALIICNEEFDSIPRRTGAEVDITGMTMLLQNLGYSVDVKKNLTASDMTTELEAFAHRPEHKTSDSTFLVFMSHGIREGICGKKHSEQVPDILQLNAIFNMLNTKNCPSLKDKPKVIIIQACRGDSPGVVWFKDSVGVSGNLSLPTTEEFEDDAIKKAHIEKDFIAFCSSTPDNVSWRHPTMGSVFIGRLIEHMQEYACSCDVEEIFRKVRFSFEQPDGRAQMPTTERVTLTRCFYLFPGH

Compound	IC50 [1] [nM]	IC50 [2] [nM]	IC50 [3] [nM]	IC50 [4] [nM]	IC50 [5] [nM]
CCC(C(=O)N[C@@H](CC(=O)O)C(=O)CCCc1ccccc1)n1cc(C(C)(C)C)nc(NCc2cc(OC)cc(OC)c2)c1=O (stereo partly specified)	–	3050	800	160	320
CCC(C(=O)N[C@@H](CC(=O)O)C(=O)CCCc1ccccc1)n1cc(C(C)(C)C)nc(NC(CC(C)C)C(=O)O)c1=O (stereo partly specified)	–	> 10000	3490	100	5490
CCC(C(=O)N[C@@H](CC(=O)O)C(=O)CCCc1ccccc1)n1cc(C(C)(C)C)nc(Nc2ccc3c(c2)OCCO3)c1=O (stereo partly specified)	–	1000	280	28	330
CCCCCCN(C)CC(=O)[C@H](CC(=O)O)NC(=O)C(CC)n1cc(C(C)(C)C)nc(Nc2nnn[nH]2)c1=O (stereo partly specified)	6070	163	64.7	6.6	3.4

More lines, now with the values ahead:

IC50 [1] [nM]	IC50 [2] [nM]	IC50 [3] [nM]	IC50 [4] [nM]	IC50 [5] [nM]	Compound
19400	14	8	5	9	CCC(C(=O)N[C@@H](CC(=O)O)C(=O)CCCc1ccccc1)n1cc(C(C)(C)C)nc(Nc2nnn[nH]2)c1=O (stereo partly specified)
–	300	920	50	2310	CCC(C(=O)N[C@@H](CC(=O)O)C(=O)CCCc1ccccc1)n1cc(C(C)(C)C)nc(NCCc2cccs2)c1=O (stereo partly specified)
